Patent publication US7396837B2, “Antitumoral analogs of lamellarins” (Pharma Mar, S.A.U., priority 2002, dated 2008)
Like-named read-outs stand apart in the source and are kept apart here.

How the values were obtained:
Assay type in all cases: cell-based
K-562 = test: SRB colorimetric cell growth inhibition assay, K-562; conditions: Homo sapiens; for GI50: GI=growth inhibition, read-out: GI50 K-562; for IC (TGI): read-out: TGI K-562
Procedure, shortened: (§1)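 Human tumour cells were exposed continuously to the test sample, and growth and viability were quantified by sulforhodamine B staining. Means ± SD came from triplicate wells, and GI, TGI (cytostatic) and LC (cell killing) parameters were derived.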

A-549 = test: SRB colorimetric cell growth inhibition assay, A-549; conditions: Homo sapiens; for GI50: GI=growth inhibition, read-out: GI50 A-549; for IC (TGI): read-out: TGI A-549
Procedure, shortened: as §1

SK-MEL-28 = test: SRB colorimetric cell growth inhibition assay, SK-MEL-28; conditions: Homo sapiens; for GI50: GI=growth inhibition, read-out: GI50 MEL-28; for IC (TGI): TGI=total growth inhibition (cytostatic effect), read-out: TGI MEL-28; for CC50: LC=cell killing (cytotoxic effect)
Procedure, shortened: as §1

HT-29 = test: SRB colorimetric cell growth inhibition assay, HT-29; conditions: Homo sapiens; for GI50: GI=growth inhibition, read-out: GI50 HT-29; for IC (TGI): read-out: TGI HT-29
Procedure, shortened: as §1

LoVo = test: SRB colorimetric cell growth inhibition assay, LoVo; conditions: Homo sapiens, LoVo; for GI50: GI=growth inhibition, read-out: GI50 LOVO; for IC (TGI): read-out: TGI LOVO
Procedure, shortened: as §1

LoVo-Dox = test: SRB colorimetric cell growth inhibition assay, LoVo-Dox (MDR); conditions: Homo sapiens; for GI50: GI=growth inhibition, read-out: GI50 LOVO-DOX; for IC (TGI): read-out: TGI LOVO-DOX
Procedure, shortened: as §1

DU-145 = test: SRB colorimetric cell growth inhibition assay, DU-145; conditions: Homo sapiens; for GI50: GI=growth inhibition, read-out: GI50 DU-145; for IC (TGI): TGI=total growth inhibition (cytostatic effect), read-out: TGI DU-145; for CC50: LC=cell killing (cytotoxic effect)
Procedure, shortened: as §1

LNCaP = test: SRB colorimetric cell growth inhibition assay, LNCaP; conditions: Homo sapiens, LNCaP; for GI50: GI=growth inhibition, read-out: GI50 LN-caP; for IC (TGI): TGI=total growth inhibition (cytostatic effect), read-out: TGI LN-caP; for CC50: LC=cell killing (cytotoxic effect)
Procedure, shortened: as §1

SK-BR-3 = test: SRB colorimetric cell growth inhibition assay, SK-BR-3; conditions: Homo sapiens; for GI50: GI=growth inhibition, read-out: GI50 SK-BR-3; for IC (TGI): TGI=total growth inhibition (cytostatic effect), read-out: TGI SK-BR-3; for CC50: LC=cell killing (cytotoxic effect)
Procedure, shortened: as §1

IGROV = test: SRB colorimetric cell growth inhibition assay, IGROV; conditions: Homo sapiens, IGROV; for CC50: LC=cell killing (cytotoxic effect); for GI50: GI=growth inhibition, read-out: GI50 IGROV; for IC (TGI): TGI=total growth inhibition (cytostatic effect), read-out: TGI IGROV
Procedure, shortened: as §1

IGROV-ET = test: SRB colorimetric cell growth inhibition assay, IGROV-ET (ET-743 resistant); conditions: Homo sapiens; for GI50: GI=growth inhibition, read-out: GI50 IGROV-ET; for IC (TGI): TGI=total growth inhibition (cytostatic effect), read-out: TGI IGROV-ET; for CC50: LC=cell killing (cytotoxic effect)
Procedure, shortened: as §1

PANC-1 = test: SRB colorimetric cell growth inhibition assay, PANC-1; conditions: Homo sapiens; for GI50: GI=growth inhibition, read-out: GI50 PANC-1; for IC (TGI): read-out: TGI PANC-1
Procedure, shortened: as §1

SKOV-3 = test: SRB colorimetric cell growth inhibition assay, SKOV-3; conditions: Homo sapiens; for GI50: SK-OV-3, SKOV-3, GI=growth inhibition, read-out: GI50 SKOV-3; for IC (TGI): TGI=total growth inhibition (cytostatic effect), read-out: TGI SKOV-3
Procedure, shortened: (§2)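 SRB colorimetric readout of cell growth/viability in 96-well format. Means ± SD from triplicate wells; GI (growth inhibition), TGI (total growth inhibition, cytostatic) and LC (cell killing, cytotoxic) parameters derived.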

[1] = SRB colorimetric cell growth inhibition assay, H-MEC-1; conditions: human
Procedure, shortened: as §2

H-MEC-1 = test: as above; conditions: Homo sapiens, HMEC-1, H-MEC-1; for GI50: GI=growth inhibition; for IC (TGI): TGI=total growth inhibition (cytostatic effect), read-out: TGI H-MEC-1
Procedure, shortened: as §2

SMILES: COc1cc(-c2c3n(c4c(=O)oc5cc(OC(=O)[C@@H]6CCCN6)c(OC)cc5c24)CCc2cc(OC(=O)[C@@H]4CCCN4)c(OC)cc2-3)ccc1OC(=O)[C@@H]1CCCN1 [Compound 134]
- GI50 (K-562; K562, K-562): 0.571 µM
- IC (TGI) (K-562; K562, K-562, total growth inhibition (cytostatic effect)): 4.93 µM
- CC50 (K-562; K562, read-out: LC50 K-562, K-562, cell killing (cytotoxic effect)): 8.81 µM
- GI50 (A-549; A549, A-549): 2.55 µM
- IC (TGI) (A-549; A549, A-549, total growth inhibition (cytostatic effect)): 4.93 µM
- CC50 (A-549; A549, read-out: LC50 A-549, A-549, cell killing (cytotoxic effect)): 8.81 µM
- GI50 (SK-MEL-28; SK-MEL-28, MEL-28): 1.73 µM
- IC (TGI) (SK-MEL-28; SK-MEL-28, MEL-28): 3.23 µM
- CC50 (SK-MEL-28; SK-MEL-28, read-out: LC50 MEL-28, MEL-28): 6.04 µM
- GI50 (HT-29; HT-29, HT-29): 2.85 µM
- CC50 (HT-29; HT-29, read-out: LC50 HT-29, HT-29, cell killing (cytotoxic effect)): 8.81 µM
- IC (TGI) (HT-29; HT-29, total growth inhibition (cytostatic effect)): 8.81 µM
- CC50 (LoVo; read-out: LC50 LOVO, LOVO, cell killing (cytotoxic effect)): 8.67 µM
- GI50 (LoVo): 2.05 µM
- IC (TGI) (LoVo; total growth inhibition (cytostatic effect)): 4.21 µM
- GI50 (LoVo-Dox; LOVO-DOX): 0.519 µM
- IC (TGI) (LoVo-Dox; LOVO-DOX, total growth inhibition (cytostatic effect)): 1.99 µM
- CC50 (LoVo-Dox; read-out: LC50 LOVO-DOX, LOVO-DOX, cell killing (cytotoxic effect)): 7.79 µM
- GI50 (DU-145; DU-145, DU-145): 2.12 µM
- IC (TGI) (DU-145; DU-145, DU-145): 4.47 µM
- CC50 (DU-145; DU-145, read-out: LC50 DU-145, DU-145): 8.81 µM
- GI50 (LNCaP; LN-caP): 0.458 µM
- IC (TGI) (LNCaP; LN-caP): 1.34 µM
- CC50 (LNCaP; read-out: LC50 LN-caP, LN-caP): 4.16 µM
- GI50 (SK-BR-3; SK-BR-3, SK-BR-3): 2.1 µM
- IC (TGI) (SK-BR-3; SK-BR-3, SK-BR-3): 4.34 µM
- CC50 (SK-BR-3; SK-BR-3, read-out: LC50 SK-BR-3, SK-BR-3): 8.81 µM
- CC50 (IGROV; read-out: LC50 IGROV, IGROV): 6.5 µM
- GI50 (IGROV): 0.943 µM
- IC (TGI) (IGROV): 2.48 µM
- GI50 (IGROV-ET; IGROV-ET): 0.482 µM
- IC (TGI) (IGROV-ET; IGROV-ET): 2.14 µM
- CC50 (IGROV-ET; read-out: LC50 IGROV-ET, IGROV-ET): 7.58 µM
- GI50 (PANC-1; PANC-1, PANC-1): 2.17 µM
- IC (TGI) (PANC-1; PANC-1, PANC-1, total growth inhibition (cytostatic effect)): 4.53 µM
- CC50 (PANC-1; PANC-1, read-out: LC50 PANC-1, PANC-1, cell killing (cytotoxic effect)): 8.81 µM
- GI50 (SKOV-3): 0.739 µM
- CC50 (SKOV-3; SK-OV-3, read-out: LC50 SKOV-3): 4.26 µM
- IC (TGI) (SKOV-3; SK-OV-3, SKOV-3): 1.85 µM
- CC50 ([1]; LC50 H-MEC-1): 8.81 µM
- GI50 (H-MEC-1): 2.13 µM
- IC (TGI) (H-MEC-1): 6.51 µM

SMILES: COc1cc2c(cc1OC)-c1c(-c3ccc(OC(=O)[C@H](C)N)c(OC)c3)c3c4cc(OC)c(OC(=O)[C@H](C)N)cc4oc(=O)c3n1CC2 [Compound 63]
- GI50 (K-562; K562, K-562): 2.9 µM
- CC50 (K-562; K562, K-562, LC=cell killing (cytotoxic effect), read-out: LC50 K-562): 15.2 µM
- IC (TGI) (K-562; K562, K-562, TGI=total growth inhibition (cytostatic effect)): 6.75 µM
- GI50 (A-549; A549, A-549): 2.84 µM
- CC50 (A-549; A549, A-549, LC=cell killing (cytotoxic effect), read-out: LC50 A-549): 10.9 µM
- IC (TGI) (A-549; A549, A-549, TGI=total growth inhibition (cytostatic effect)): 5.57 µM
- GI50 (SK-MEL-28; SK-MEL-28, MEL-28): 2.34 µM
- CC50 (SK-MEL-28; SK-MEL-28, MEL-28, read-out: LC50 MEL-28): 10.1 µM
- IC (TGI) (SK-MEL-28; SK-MEL-28, MEL-28): 4.87 µM
- GI50 (HT-29; HT-29, HT-29): 2.92 µM
- CC50 (HT-29; HT-29, HT-29, LC=cell killing (cytotoxic effect), read-out: LC50 HT-29): 11.1 µM
- IC (TGI) (HT-29; HT-29, HT-29, TGI=total growth inhibition (cytostatic effect)): 5.7 µM
- GI50 (LoVo): 1.46 µM
- CC50 (LoVo; LC=cell killing (cytotoxic effect), read-out: LC50 LOVO): 9.11 µM
- IC (TGI) (LoVo; TGI=total growth inhibition (cytostatic effect)): 3.68 µM
- GI50 (LoVo-Dox; LOVO-DOX): 0.909 µM
- CC50 (LoVo-Dox; LOVO-DOX, LC=cell killing (cytotoxic effect), read-out: LC50 LOVO-DOX): 9.85 µM
- IC (TGI) (LoVo-Dox; LOVO-DOX, TGI=total growth inhibition (cytostatic effect)): 2.95 µM
- GI50 (DU-145; DU-145, DU-145): 2.2 µM
- CC50 (DU-145; DU-145, DU-145, read-out: LC50 DU-145): 11.7 µM
- IC (TGI) (DU-145; DU-145, DU-145): 5.08 µM
- GI50 (LNCaP; LN-caP): 1.13 µM
- CC50 (LNCaP; LN-caP, read-out: LC50 LN-caP): 9.61 µM
- IC (TGI) (LNCaP; LN-caP): 3.47 µM
- GI50 (SK-BR-3; SK-BR-3, SK-BR-3): 1.57 µM
- CC50 (SK-BR-3; SK-BR-3, SK-BR-3, read-out: LC50 SK-BR-3): 14.7 µM
- IC (TGI) (SK-BR-3; SK-BR-3, SK-BR-3): 4.8 µM
- GI50 (IGROV): 0.975 µM
- CC50 (IGROV; read-out: LC50 IGROV): 14.6 µM
- IC (TGI) (IGROV): 3.86 µM
- GI50 (IGROV-ET; IGROV-ET): 0.64 µM
- CC50 (IGROV-ET; IGROV-ET, read-out: LC50 IGROV-ET): 15.2 µM
- IC (TGI) (IGROV-ET; IGROV-ET): 2.86 µM
- GI50 (PANC-1; PANC-1, PANC-1): 1.93 µM
- CC50 (PANC-1; PANC-1, PANC-1, LC=cell killing (cytotoxic effect), read-out: LC50 PANC-1): 13.2 µM
- IC (TGI) (PANC-1; PANC-1, PANC-1, TGI=total growth inhibition (cytostatic effect)): 5.05 µM
- GI50 (SKOV-3): 3.06 µM
- CC50 (SKOV-3; SK-OV-3, SKOV-3, LC=cell killing (cytotoxic effect), read-out: LC50 SKOV-3): 11.1 µM
- IC (TGI) (SKOV-3; SK-OV-3, SKOV-3): 5.84 µM
- CC50 ([1]; H-MEC-1 cells, H-MEC-1, LC=cell killing (cytotoxic effect), read-out: LC50 H-MEC-1): 10.1 µM
- GI50 (H-MEC-1): 2.72 µM
- IC (TGI) (H-MEC-1): 5.25 µM
